Assay results from patent publication US20130014428A1, “METHODS OF MONITORING AND CONTROLLING THE WALNUT TWIG BEETLE, PITYOPHTHORUS JUGLANDIS” (The United States of America as Represented by the …, priority 2011, published 2013).

How the values were obtained:
P. juglandis = assay: GC-EAD (electroantennal detection) of volatile extract; design: species or system Pityophthorus juglandis; conditions: extract of J. hindsii with male and female P. juglandis feeding 45 hr
Protocol: Gas Chromatography-Electroantennal Detection (GC-EAD). GC-EAD analysis was performed on the extract of walnut (Juglans hindsii) with male and female P. juglandis feeding for 45 hr (pentane extract (7)). The sample was analyzed with an HP5890 GC with the following conditions: DB-5 column 30 m×0.32, oven 50° C. for 1 min, temperature programmed at 20° C./min to a final temperature of 280° C.

[1] = test system: walnut twig beetle (WTB), Pityophthorus juglandis; assay: Example 1 Field Test 1: flight response to X and related isomers, yellow sticky card traps; assay type: in vivo
Protocol: Field Bioassays of Semiochemicals. […] Contech Enterprises Inc., Delta, British Columbia, Canada) and attached to yellow sticky card traps ([…], OK). In addition, synthesized (+) and (-) enantiomers of trans-conophthorin were tested in 400 μl polyethylene Eppendorf microcentrifuge tubes. Four field studies were conducted (Table 2) that tested the flight responses to: 3-methyl-2-buten-l-ol and related isomers (Field Test 1); 3-methyl-2-buten-l-ol with and without racemic trans-conophthorin (Field Test 2); 3-methyl-2-buten-l-ol with and without the purified enantiomers of trans-conophthorin (Field Test 3); and 3-methyl-2-buten-l-ol with and without racemic chalcogran (Field Test 4). [table] Statistical Analysis. Field Tests 1-4 were each analyzed for treatment effect by using Friedman's non-parametric analysis of variance. (See Zar, J. H. 2010. Biostatistical Analysis, 5th Ed. Pearson Prentice Hall, New Jersey). Males and females were subjected to separate analyses. All treatments within experiments yielding a significant treatment effect were compared by using an a posteriori Nemenyi test (Zar 2010) with experimentwise α=0.05. Sex ratios of responding WTB were determined using Cochran's method for unbiased sampling (See Cochran, W. G. 1977. Sampling Techniques, 3rd ed. John Wiley, New York), with 95% confidence intervals calculated by using the Clopper-Pearson method. (See Zar, J. H. 2010. Biostatistical Analysis, 5th Ed. Pearson Prentice Hall, New Jersey).

WTB = assay: Six release rate experiment, 4-unit Lindgren funnel traps; assay type: in vivo, Pityophthorus juglandis; conditions: for trap catches, female WTB / trap catches, male WTB: N=99
Protocol: In a separate experiment, the flight response of WTB to six release rates of 3-methyl-2-buten-1-ol was tested at the same location in early summer. The six release rates were: 1) 165 mg/d, from a capped 15 ml polyethylene bottle with a 0.48 cm hole drilled in the side of the cap, charged with 15 ml 3-methyl-2-buten-1-ol (Sigma-Aldrich); 2) 15-80 mg/d from the commercial LDPE plastic pouch (Contech); 3) 5 mg/d from a capped 15 ml polyethylene bottle charged with 15 ml 3-methyl-2-buten-1-ol (Sigma-Aldrich); 4) 5 mg/d from a capped 15 ml polyethylene bottle charged with 1 ml 3-methyl-2-buten-1-ol (Sigma-Aldrich); 5) 0.2 mg/d from a 400 μl closed Eppendorf polyethylene microcentrifuge tube charged with 300 μl 3-methyl-2-buten-1-ol (Sigma-Aldrich); and 6) an unbaited control. The 15 ml polyethylene bottles were purchased from Contech Enterprises (product #100000582/583); the 400 μl polyethylene Eppendorf microcentrifuge tubes were purchased from Evergreen Scientific (product #214-3417-020, Los Angeles, Calif.). These release devices were attached to 4-unit Lindgren funnel traps as described above. The six treatments were replicated in three spatial blocks and the treatments were re-randomized among the six trap stations in a block each time the traps were emptied (nearly every day). Statistical Analyses. Analysis of treatment effects for the pouch vs. bottle experiment was done by using a sign test. (See Zar, J. H. 2010. Biostatistical Analysis. 5th ed. Pearson Prentice Hall, Englewood Cliffs, N.J.) The other four experiments were analyzed for treatment effect by using Friedman's non-parametric analysis of variance. Id. In all experiments, males and females were analyzed separately. All treatments within experiments yielding a significant treatment effect were compared by using an a posteriori Nemenyi test with experimentwise α=0.05. Id. For all experiments, differences among proportions of female WTB responding to treatments were analyzed by comparing 95% confidence intervals determined with the Clopper-Pearson method. Id.

[2] = test system: walnut twig beetle (WTB), Pityophthorus juglandis; assay: Example 1 Field Test 4: flight response to X with and without racemic chalcogran; assay type: in vivo; conditions: yellow sticky card traps, Davis CA
Protocol: Field Bioassays of Semiochemicals. To test the attractiveness of the various compounds of interest, some of the commercially available materials listed above were poured into 15 ml capped polyethylene bottles (Product #s A1-1050/002, A1-1055/002; Contech Enterprises Inc., Delta, British Columbia, Canada) and attached to yellow sticky card traps (Trécé, Adair, OK). In addition, synthesized (+) and (−) enantiomers of trans-conophthorin were tested in 400 μl polyethylene Eppendorf microcentrifuge tubes. Four field studies were conducted (Table 2) that tested the flight responses to: 3-methyl-2-buten-l-ol and related isomers (Field Test 1); 3-methyl-2-buten-l-ol with and without racemic trans-conophthorin (Field Test 2); 3-methyl-2-buten-l-ol with and without the purified enantiomers of trans-conophthorin (Field Test 3); and 3-methyl-2-buten-l-ol with and without racemic chalcogran (Field Test 4).
Statistical Analysis. Field Tests 1-4 were each analyzed for treatment effect by using Friedman's non-parametric analysis of variance. (See Zar, J. H. 2010. Biostatistical Analysis, 5th Ed. Pearson Prentice Hall, New Jersey). Males and females were subjected to separate analyses. All treatments within experiments yielding a significant treatment effect were compared by using an a posteriori Nemenyi test (Zar 2010) with experimentwise α=0.05. Sex ratios of responding WTB were determined using Cochran's method for unbiased sampling (See Cochran, W. G. 1977. Sampling Techniques, 3rd ed. John Wiley, New York), with 95% confidence intervals calculated by using the Clopper-Pearson method. (See Zar, J. H. 2010. Biostatistical Analysis, 5th Ed. Pearson Prentice Hall, New Jersey).

[3] = about three months in summer, Davis CA, N=21
[4] = about one month late summer, N=13

CC(C)=CCO [X, 3-methyl-2-buten-1-ol]
antennal activity by GC-EAD (P. juglandis): antenally active
flight attraction [1]: attractive to males and females
proportion of females responding ([1]; Davis CA): 0.65
trap catches, female WTB [1, 3]: 438
trap catches, male WTB [1, 3]: 233
proportion of females responding (WTB; 0.2 mg/d): 0.66
trap catches, female WTB (WTB; 0.2 mg/d): 623
trap catches, male WTB (WTB; 0.2 mg/d): 323
proportion of females responding (WTB; 5 mg/d (1 ml load)): 0.71
trap catches, female WTB (WTB; 5 mg/d (1 ml load)): 1084
trap catches, male WTB (WTB; 5 mg/d (1 ml load)): 453
proportion of females responding (WTB; 5 mg/d (15 ml load)): 0.72
trap catches, female WTB (WTB; 5 mg/d (15 ml load)): 1534
trap catches, male WTB (WTB; 5 mg/d (15 ml load)): 608
proportion of females responding (WTB; 165 mg/d): 0.75
trap catches, female WTB (WTB; 165 mg/d (15 ml load)): 612
trap catches, male WTB (WTB; 165 mg/d (15 ml load)): 205
proportion of females responding (WTB; 15-80 mg/d): 0.77
trap catches, female WTB (WTB; 15-80 mg/d): 934
trap catches, male WTB (WTB; 15-80 mg/d): 285
release rate giving highest flight response (WTB; six release rates compared): highest response for both sexes was to the 5 mg/d release loaded with 15 ml of pheromone
proportion of females responding [2]: 0.69
trap catches, female WTB [2, 4]: 94
trap catches, male WTB [2, 4]: 43
